# Read-outs that look alike come from different tables or passages of the source.
# How the values were obtained:
# [1] = test system: peripheral blood mononuclear cells (PBMCs); assay: Antiproliferative/cytotoxicity assay on PBMCs from a healthy donor; format: cell-based; conditions: Homo sapiens, PBMC
# Experimental: To assess the potential toxicity of the most promising quinoline derivatives 4i, 4n, 4s, and 4ah, an antiproliferative assay was performed, using peripheral blood mononuclear cells (PBMCs) isolated from a healthy donor.
# (§1) To test the newly synthesized compounds, various human cell lines were employed. HD‐MB03 cells were purchased from DSMZ (Braunschweig, Germany), while A549, MDA‐MB‐231, RPMI‐8420, SU‐DHL‐8, TOLEDO, VL51, SU‐DHL‐1, SU‐DHL‐18, and KM‐H2 were obtained from ATCC (Manassas, VA, USA). Cells were cultured in DMEM (for MDA‐MB‐231 and A549) or RPMI‐1640 (for RPMI‐8420, SU‐DHL‐8, TOLEDO, VL51, SU‐DHL‐1, SU‐DHL‐18, KM‐H2, and HD‐MB03) media (Gibco, Milan, Italy). Both media were supplemented with 115 units/mL penicillin G (Gibco, Milan, Italy), 115 µg/mL streptomycin (Invitrogen, Milan, Italy), and 10% fetal bovine serum (Invitrogen, Milan, Italy). Peripheral blood mononuclear cells (PBMCs) were isolated from healthy donors as previously described. For cytotoxicity assays, PBMCs were resuspended at 5 × 10⁵ cells/mL in complete RPMI medium with or without 2.5 µg/mL phytohemagglutinin (PHA) (Irvine Scientific) to stimulate T‐cell activation and proliferation. All cell lines were maintained at 37°C in a humidified atmosphere containing 5% CO₂. All compounds were dissolved in DMSO at a 10 mM stock concentration. For dose–response assays, cells were seeded in 96‐well plates at densities optimized for each cell line: HD‐MB03 at 10,000 cells/well, A549 at 4000 cells/well, and MDA‐MB‐231 at 7000 cells/well. All other cell lines were seeded at 20,000 cells/well in a final volume of 100 µL per well. After 24 h, cells were treated with a 6‐point serial dilution of compounds starting from 10 µM, in triplicate for statistical analysis. Seventy‐2 h posttreatment, 10 µL of resazurin solution (100 µg/mL) was added to each well, and cells were incubated for an additional 3–6 h. Fluorescence was measured using a Spark 10 M microplate reader (Tecan Group Ltd., Männedorf, Switzerland) with excitation at 535 nm and emission at 600 nm. The IC₅₀ was defined as the concentration of compound required to inhibit cell proliferation by 50% compared to cells treated with the highest DMSO concentration.
# To test the newly synthesized compounds, various human cell lines were employed. HD-MB03 cells were purchased from DSMZ (Braunschweig, Germany), while A549, MDA-MB-231, RPMI-8420, SU-DHL-8, TOLEDO, VL51, SU-DHL-1, SU-DHL-18, and KM-H2 were obtained from ATCC (Manassas, VA, USA). Cells were cultured in DMEM (for MDA-MB-231 and A549) or RPMI-1640 (for RPMI-8420, SU-DHL-8, TOLEDO, VL51, SU-DHL-1, SU-DHL-18, KM-H2, and HD-MB03) media (Gibco, Milan, Italy). Both media were supplemented with 115 units/mL penicillin G (Gibco, Milan, Italy), 115 µg/mL streptomycin (Invitrogen, Milan, Italy), and 10% fetal bovine serum (Invitrogen, Milan, Italy). Peripheral blood mononuclear cells (PBMCs) were isolated from healthy donors as previously described. ^[1] For cytotoxicity assays, PBMCs were resuspended at 5 × 10⁵ cells/mL in complete RPMI medium with or without 2.5 µg/mL phytohemagglutinin (PHA) (Irvine Scientific) to stimulate T cell activation and proliferation. All cell lines were maintained at 37 °C in a humidified atmosphere containing 5% CO₂. All compounds were dissolved in DMSO at a 10 mM stock concentration. For dose–response assays, cells were seeded in 96-well plates at densities optimized for each cell line: HD-MB03 at 10,000 cells/well, A549 at 4,000 cells/well, and MDA-MB-231 at 7,000 cells/well. All other cell lines were seeded at 20,000 cells/well in a final volume of 100 µL per well. After 24 hours, cells were treated with a 6-point serial dilution of compounds starting from 10 µM, in triplicate for statistical analysis. Seventy-two hours post-treatment, 10 µL of resazurin solution (100 µg/mL) was added to each well, and cells were incubated for an additional 3–6 hours. […]
# [2] = test system: panel of five tumor cell lines (HD-MB03, RPMI-8402, SU-DHL-8, A549, MDA-MB-231); assay: Antiproliferative activity, range over the panel of five tumor cell lines; format: cell-based; conditions: Homo sapiens; range over the active cell lines of the five-line panel; 72 h
# Experimental: The synthesized quinoline derivatives 4a–z and 4aa–ah were evaluated in vitro for their antiproliferative activity against a panel of five tumor cell lines (HD‐MB03, medulloblastoma; RPMI‐8402, T‐lymphoblastic leukemia; SU‐DHL‐8, B lymphocyte, large cell lymphoma; A549, non‐small cell lung cancer; MDA‐MB‐231, triple‐negative breast cancer) (Table 2). […] Replacing the 4‐Cl group with a trifluoromethyl group (4ac) reduced antiproliferative activity.
# as §1
# VL51 [3] = assay: Mitochondrial ROS detection (MitoSOX); format: cell-based, human; conditions: 24 h of treatment
# Experimental: (§2) Cells were plated in 12‐well plates at 0.2 × 10⁶ cells/mL in 1 mL of complete medium. After 24 h, cells were treated with the indicated compound concentrations. Following a 24‐h treatment, cells were stained with 0.5 µM MitoSOX (Invitrogen, US) for 20 min. After washing with PBS, fluorescence was measured using a CytoFLEX flow cytometer (Beckman Coulter) and analyzed with FlowJo software v.10.7.1.
# TOLEDO [4] = assay: Mitochondrial ROS detection (MitoSOX); format: cell-based, human; conditions: 24 h of treatment
# Experimental: as §2
# VL51 [5] = assay: Cell-cycle analysis (flow cytometry); format: cell-based, human; conditions: 2 µM, 48 h
# Experimental: Cells were plated in 12‐well plates at 0.2 × 10⁶ cells/mL in 1 mL of complete medium. After 24 h, cells were treated with the specified compound concentrations. Following an additional 24 h, cells were harvested, centrifuged, and fixed in 70% ice‐cold ethanol. Cells were then stained and processed as previously described. Data acquisition was performed using a Coulter Cytomics FC500 flow cytometer (Beckman Coulter).
# VL51 [6] = assay: EdU incorporation assay (DNA synthesis); format: cell-based, human; conditions: 1 and 2 µM, 48 h
# Experimental: (§3) For evaluation of DNA synthesis, cells were plated in 12‐well plates at 0.2 × 10⁶ cells/mL in 1 mL of complete medium. After 24 h, cells were treated with the indicated compound concentrations. EdU (5‐ethynyl‐2‐deoxyuridine) incorporation was performed according to the Baseclick EdU Flow Cytometry Kit instructions (Sigma Aldrich, St. Louis, MO, USA) as previously described. EdU‐FITC incorporation was detected using a CytoFLEX flow cytometer (Beckman Coulter, Brea, CA, USA) and analyzed with FlowJo software v.10.7.1 (BD Biosciences).
# TOLEDO [7] = assay: EdU incorporation assay (DNA synthesis); format: cell-based, human; conditions: 1 and 2 µM, 48 h
# Experimental: as §3
# [8] = PBMCs stimulated with 2.5 µg/mL PHA, read-out: IC50 phytohemagglutinin-stimulated PBMCs
# [9] = resting PBMCs from a healthy donor, read-out: IC50 resting PBMCs
IC50 [2],SMILES,"IC50 [1, 8]","IC50 [1, 9]",Mitochondrial ROS (MitoSOX-positive cells) (VL51 [3]),Mitochondrial ROS (MitoSOX-positive cells) (TOLEDO [4]),Cell-cycle distribution (VL51 [5]),DNA synthesis (EdU incorporation) (VL51 [6]),DNA synthesis (EdU incorporation) (TOLEDO [7])
–,"COc1cc(/C=C/c2cc(C(=O)Nc3ccc([N+](=O)[O-])cc3)c3ccccc3n2)cc(OC)c1OC [4s, (E)-N-(4-nitrophenyl)-2-(3,4,5-trimethoxystyryl)quinoline-4-carboxamide]",> 10 µM,> 10 µM,–,–,–,–,–
–,"COc1cc(/C=C/c2cc(C(=O)Nc3c(C)cccc3C)c3ccccc3n2)cc(OC)c1OC [4n, (E)-N-(2,6-dimethylphenyl)-2-(3,4,5-trimethoxystyryl)quinoline-4-carboxamide]",> 10 µM,> 10 µM,–,–,–,–,–
1.33 to 6.92 µM,"O=C(Nc1ccc(Cl)cc1)c1cc(/C=C/c2ccccc2[N+](=O)[O-])nc2ccccc12 [4ah, (E)-N-(4-chlorophenyl)-2-(2-nitrostyryl)quinoline-4-carboxamide]",> 10 µM,> 10 µM,–,–,–,–,–
–,"O=C(Nc1ccc([N+](=O)[O-])cc1)c1cc(/C=C/c2ccccc2)nc2ccccc12 [4i, (E)-N-(4-nitrophenyl)-2-styrylquinoline-4-carboxamide]",> 10 µM,> 10 µM,marked dose‐dependent increase of mitochondrial ROS,marked dose‐dependent increase of mitochondrial ROS,significant accumulation of cells in the G₂/M phase,"marked, dose‐dependent reduction in DNA synthesis","marked, dose‐dependent reduction in DNA synthesis"
